# In article PMC11134387, “Cancer-Stem-Cell Phenotype-Guided Discovery of a Microbiota-Inspired Synthetic Compound Targeting NPM1 for Leukemia” (JACS Au, 2024):
# “And” between values parts separate entries of the source, which are not always exact repeats. Equal values may be shown once.
# Experiments:
# [1] = tested on: primary CD34+ cells from healthy donors; test: CFU-E colony-forming unit assay, healthy donors; format: cell-based; conditions: Homo sapiens
# Protocol: Considering the inhibitory capacity of UCM-13369 on AML cell lines (shown in Figure 3A), the therapeutic potential was assessed in primary CD34+ cells from AML patients. Two ex vivo models were used from AML patients and healthy donors: CD34+ liquid HSC (hematopoietic stem cell) culture as a short-term model and CFU-E (colony-forming unit–erythroid) as a midterm model.
# The test compound was diluted in PBS. […]
# Primary cells. 1x10^6/mL total mononuclear bone marrow cells (as source of CD34+ HSCs) of healthy donors and AML patients were used. They were cultured using Stem SpanTM supplement with pencillin/streptomycin (500 U/ml), TPO (10 µg/mL), SCF (10 µg/mL), FLT3 (10 µg/mL), IL-6 (10 µg/mL) and IL-3 (10 µg/mL). After 24 h fresh medium was added. After 72 h in maintenance cells were ready to start the assays. All cells wer e maintained at 37 °C in a humidified incubator in an atmosphere of 5% CO2.
# Colonospheres, mamospheres and colony formation unit assays. 30.000 cells per well of MCF-7 cells (mamos pheres), HCT-116 cells (colonospheres) and CD34+ cells from patients (colony formation units) were seeded in serum free non- adherent medium or […]
# MethoCult (Stem Cell). […]
# [2] = target: T1, NPM1 N-end (pentameric, WT) (Homo sapiens, UniProt P06748); test: Isothermal titration calorimetry, NPM1 N-end; format: binding; conditions: ITC, 25 °C
# T1 construct: N-end pentameric domain (residues 1- 130); 6xHis (N); made in house; host or cells: E. coli BL21(DE3)
# T1 sequence (P06748 1-130): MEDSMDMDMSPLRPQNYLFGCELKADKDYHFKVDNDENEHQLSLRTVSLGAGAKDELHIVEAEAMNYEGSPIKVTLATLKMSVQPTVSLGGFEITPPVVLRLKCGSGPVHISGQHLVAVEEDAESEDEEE
# Description: (§1) To confirm a direct interaction of UCM-13369 with NPM1 and to address which domain of the protein would be responsible for binding the compound, pure protein samples of the pentameric N-end domain of NPM1, along with the C-terminal DNA-binding domains of WT and mutant NPM1 C+, were used in calorimetry assays. […] This is indicative of a lower diversity in the chemical environment of amide protons consistent with the previously reported protein unfolding.[29] […] On the other hand, the pentameric construct of the NPM1 N-end, which lacks the AML-related region, yielded a much lower binding affinity (KD ca. 100 μM range, Figure 3D).
# (§2) ITC experiments were performed in a Nano ITC Low Volume (TA Instruments) at 25 °C. […]
# (§3) The purity of the protein samples was checked by SDS–PAGE analysis (Figure S3) and protein quantification was performed using the Bradford protein assay.5 NPM molar concentration was expressed as the pentameric form for NPM1 WT N-end and as a monomer for NPM1 C-end WT and mutant. […]
# (§4) After extraction with acetonitrile and acidification, samples were desalted and concentrated with C18 tips. Mass spectra were recorded in a Hybrid Quadrupole-Orbitrap™ Mass Spectrometer (Thermo Scientific, Waltham, Massachusetts, USA)
# NPM1 C-end C+ = target: T2, NPM1 C-end C+ (Homo sapiens, UniProt P06748); test: Isothermal titration calorimetry, NPM1 C-end C+; format: binding; conditions: ITC
# T2 construct: the C-end domain (residues 225- 294); 6xHis (N); made in house; host or cells: E. coli BL21(DE3)
# T2 sequence (P06748 with tags, fused parts or gaps limits assumed): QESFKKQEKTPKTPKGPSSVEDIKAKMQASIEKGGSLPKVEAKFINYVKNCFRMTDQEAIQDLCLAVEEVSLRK
# Description: as §1, §2, §3, §4
compound,measurement,setting,value
"COc1ccc(C2Cc3[nH]c4ccccc4c3C(CCNCC3CC3)C2N)cc1 (stereo not shown) [4b, 4-{2-[(Cyclopropylmethyl)amino]ethyl}-2-(4-methoxyphenyl)-2,3,4,9-tetrahydro-1H-carbazol-3-amine]",IC50,[1],1.73 µM
same,Kd,[2],100 µM and ~100 µM
same,Kd,"NPM1 C-end C+; 25 °C, NPM1 C-end C+",15 µM
same,Higher affinity of NPM1 C-end C+ than WT domain,NPM1 C-end C+; C+ variant vs WT domain,2 fold
